Legend:
[1] = test system: MITF^endo^_^hi and MITF^endo^_^lo cell lines; experiment: dose response curve (short-term viability assay); assay type: cell-based, human; conditions: four MITF^endo^_^lo versus four MITF^endo^_^hi cell lines
Experimental: Cell line sources: Melanoma cell lines and HEK293T were cultured in DMEM/9% FBS (Sigma), 2 mM glutamine, 100 U/mL penicillin and 0.1 mg/mL streptomycin (all Gibco) under standard conditions. […] For dose response curve and colony formation assay cells were plated in a line-specific manner. Equal concentration of inhibitors was added one day after set up. For short-term viability assay (dose response curve) cells were plated in a 96-well format and drugs diluted with the HP D300 Digital Dispenser (Tecan). After three to five days incubation old medium was replaced by a dilution of CellTiter Blue reagent or CellTiter-Glo Luminescent Cell Viability Assay (Promega, Madison, Wiss.) in medium. Two hours later luminescence was measured by the infinite M200 microplate reader (Tecan, Giessen, Germany).
(§2) We then determined the spectrum of drug sensitivity among the MITF^endo^_^lo and MITF^endo^_^hi cells.

[2] = test system: receptor tyrosine kinases (RTKs); experiment: phospho-RTK array; assay type: cell-based, human; conditions: 5 μM, two days
Experimental: Phospho-RTK assay was performed using the human Phospho-RTK Array from RD Systems (Minneapolis, USA). All steps were performed according to the manufactures protocol.
Encouraged by these findings, we compared the phosphorylation status of RTKs in one MITF^endo^_^lo and one MITF^endo^_^lo cell line.

[3] = test system: MITF; experiment: MITF expression during acquisition of resistance; assay type: cell-based, human; conditions: short-term exposure, M229 and M238 MITF^acq^_^loss melanoma cell lines
Experimental: RNA was isolated using Trizol (Ambion), following standard protocol. Reverse transcription was performed using a kit from Invitrogen. Primers were designed using Primer Express software. QRT-PCR was performed with SYBR green master mix (Applied Biosystems) on a StepOnePlus Real-Time PCR system (Applied Biosystems, Warrington, UK). RNA levels were normalized against beta-actin or RPL13. Following primers were used: To study the dynamics of MITF downregulation as a function of the acquisition of a resistant phenotype, two independent MITF^acq^_^loss melanoma cell lines (M229 and […]; {Shi:2014fm}) were permanently exposed to 1 μM vemurafenib and monitored in time.

[4] = test system: MITF^endo^_^lo and MITF^endo^_^hi BRAF mutant melanoma cells; experiment: cell proliferation assay and PARP cleavage; assay type: cell-based, human; conditions: 5 μM, six days; MITF^endo^_^lo versus MITF^endo^_^hi cells
Experimental: FIG. 7: BRAFV600E mutant melanoma cells were plated in low density and treated with 5 μM PLX4270 for 6 days or left untreated and stained with crystal violet (left panel).
Cell line sources: Melanoma cell lines and HEK293T were cultured in DMEM/9% FBS (Sigma), 2 mM glutamine, 100 U/mL penicillin and 0.1 mg/mL streptomycin (all Gibco) under standard conditions. […] For dose response curve and colony formation assay cells were plated in a line-specific manner. Equal concentration of inhibitors was added one day after set up. For short-term viability assay (dose response curve) cells were plated in a 96-well format and drugs diluted with the HP D300 Digital Dispenser (Tecan). After three to five days incubation old medium was replaced by a dilution of CellTiter Blue reagent or CellTiter-Glo Luminescent Cell Viability Assay (Promega, Madison, Wiss.) in medium. Two hours later luminescence was measured by the infinite M200 microplate reader (Tecan, Giessen, Germany). Long-term viability assays were performed in 6-well or 12-well format. Inhibitors solutions were replaced every two to three days and plates stained with crystal violet after six to nine days of treatment (as indicated). For immunoblot analysis cells were treated on 10 cm dishes and snap-frozen after harvesting.
as §2

[5] = test system: ERK phosphorylation; experiment: immunoblot of ERK phosphorylation; assay type: cell-based, human; conditions: 5 μM; irrespective of MITF status
Experimental: For immunoblot analysis cells were treated on 10 cm dishes and snap-frozen after harvesting.
Cells were lysed in RIPA buffer and protein concentration measured with Bio-Rad protein assay. Immunoblots were performed according to standard protocols on 4 to 12% bis-Tris precast or 3-8% tris-acetate gels (NuPage). […] MAP kinase p44/42 thy202/Tyr204 (9106) and PDGFRbeta (31695) from Cell Signaling.

[6] = test system: AXL-expressing PLX4270-resistant melanoma cells; experiment: long-term viability assay, crystal violet staining; assay type: cell-based, human; conditions: 0.3 μM AXL inhibitor, nine days, in two out of three resistant cell lines
Experimental: FIG. 12: AXL-expressing PLX4270-resistant melanoma cells were exposed to 0.3 μM AXL inhibitor for nine days and the remaining cells stained with crystal violet.
(§1) Cell line sources: Melanoma cell lines and HEK293T were cultured in DMEM/9% FBS (Sigma), 2 mM glutamine, 100 U/mL penicillin and 0.1 mg/mL streptomycin (all Gibco) under standard conditions. HEK293T cells were used for virus production for MITF-overexpression and shRNAs. Briefly HEK293T cells were transfected with the plasmid of interest and the helper plasmids (pMDLglpRRE, pHCMV-G, and pRSVrev). Viral supernatant was either fresh frozen or subsequently used for infection. Infected melanoma cells were positively selected with puromycin (Sigma). For dose response curve and colony formation assay cells were plated in a line-specific manner. Equal concentration of inhibitors was added one day after set up. For short-term viability assay (dose response curve) cells were plated in a 96-well format and drugs diluted with the HP D300 Digital Dispenser (Tecan). […] Two hours later luminescence was measured by the infinite M200 microplate reader (Tecan, Giessen, Germany). […]
Next, we determined the expression pattern of these RTKs in acquired resistance, particularly in PLX4720-sensitive cells and their resistant counterparts. […]

[7] = test system: PLX4720-resistant MITF^acq^_^gain cells; experiment: long-term viability assay, crystal violet staining; assay type: cell-based, human; conditions: crystal violet after 6 days
Experimental: FIG. 5: Loss of MITF confers cross-resistance and increases invasiveness of resistant cells. Two PLX4270-resistant cells lines (Me1888 and SkMe128) and their treatment-naïve counterparts were treated with either ERKi, MEKi, the BRAFinhibitor Dabrafenib or a combination of the latter and stained with crystal violet after 6 days of treatment.
as §1

[8] = test system: BRAFV600E mutant melanoma cell line (04.07); experiment: sensitivity of screening cell line to ERK inhibitor; assay type: cell-based, human; conditions: not all cells are killed even at high concentration
Experimental: The insertional mutagenesis screen was performed as described previously (Lu et al. Proc Natl Acad Sci U S A. (2009) 22;106(38):16339-44). Briefly, an intermediate sensitive melanoma cell line of low passage (Me104.07) was infected separately with the three different VBIM constructs (SD1-3). Two days after infection cells were exposed to 1 μM […] for three weeks till single colonies had formed. These were picked and separately cultured. For identification of insertions Splinkerette-PCR was used according to the published protocol and Sanger sequencing applied on amplified products.
To identify proteins conferring resistance to MAPK pathway inhibition by the recently available ERK inhibitor 5CH772984, we performed a lentiviral insertional mutagenesis screen using the VBIM system. Carrying a GFP-sequence and a strong CMV promoter, the virus integrates in the genome, resulting in an activation of downstream sequences that leads to overexpression of a FLAG-tagged protein. Due to […] excision the insertion can be excised by addition of 4-Hydroxytamoxifen (4-OHT). […] We infected this cell line with the three versions of the insertional mutagenesis vector (SD1-3). After three weeks of culturing in the presence of 1 μM SCH772984, we were able to pick drug-resistant clones and individually expanded them. […]

[9] = test system: BRAF and BRAF/MEK inhibitor-resistant cells; conditions: Morris et al. 2013; cited from earlier work

**Q.** With `CC(=O)Nc1cccc(-n2c(=O)n(C3CC3)c(=O)c3c(Nc4ccc(I)cc4F)n(C)c(=O)c(C)c32)c1` [MEKi] as the compound, how does the “increase in resistance, as measured from the IC50 values” [1] read?
**A.** up to 1000 fold

**Q.** Which “activation of RTKs” value ([2]; MITF^endo^_^hi cells) does the source give for `CCCS(=O)(=O)Nc1ccc(F)c(C(=O)c2c[nH]c3ncc(Cl)cc23)c1F` [PLX4720] here?
**A.** only a minor activation

**Q.** What about the “activation of RTKs” value ([2]; MITF^endo^_^lo cells) of the same compound?
**A.** further increased

**Q.** What about the MITF expression [3] of the same compound?
**A.** sharply dropped

**Q.** What about the “survival of cells upon exposure” value [4] of the same compound?
**A.** clear survival benefit

**Q.** And the ERK phosphorylation [5]?
**A.** diminished

**Q.** For `Nc1nc(Nc2ccc3c(c2)CCC(N2CCCC2)CC3)nn1-c1cc2c(nn1)-c1ccccc1CCC2` (stereo not shown) [R428], which “proliferation/viability upon drug treatment” value [6] is on record?
**A.** strong decrease in proliferation/viability

**Q.** With `CC(C)(C)c1nc(-c2cccc(NS(=O)(=O)c3c(F)cccc3F)c2F)c(-c2ccnc(N)n2)s1` [Dabrafenib] as the compound, how does the “sensitivity in long-term experiment” value [7] read?
**A.** resistant

**Q.** With `O=C(Nc1ccc2[nH]nc(-c3ccncc3)c2c1)[C@@H]1CCN(CC(=O)N2CCN(c3ccc(-c4ncccn4)cc3)CC2)C1` [SCH772984] as the compound, how does the “sensitivity to the inhibitor” value [8] read?
**A.** intermediately sensitive

**Q.** What about the proliferation [9] of the same compound?
**A.** effectively block proliferation
